In series [1] the test system is Halothiobacillus neapolitanus strains. The settings on record: cited from earlier work.
Series [2] can be described thus: Metal desorption from pre-loaded GAC in phosphate or citrate buffer solutions at various pH. Type of series: physicochemical. Here is the method: Phosphate or citrate buffering was used to stabilize pH. Points represent the mean of three observations. Error bars indicate standard deviation.
The metal leaching behavior of the GAC impregnated with Cd^2+ or CrO4^2− ions was determined using phosphate or citrate buffer solutions as described herein. […] This is consistent with studies that found cadmium and other metal cations sorbed to activated carbon most strongly at high pH. […] Also, chromate anions have increased sorption to activated carbon at low pH.
By delivering toxicity in the pH range where this transition between community types occurs, the metal-carbon formulations can prevent acidophile colonization. […] Cadmium cation sorption is more ideal for this corrosion prevention application because metal remains in solution as corrosion progresses to pH values below 6.

Series [3] in a line: Cadmium and chromium in corrosion product and pore water of treated field specimens (ICP-MS), pore water pH. In kind it is physicochemical. The settings on record: after 70 days, Experiment B. The method, then: Metal concentrations measured by inductively coupled plasma mass spectrometry (ICP-MS) of acid extracted samples.
Cadmium and chromium were measured in dry sieved corrosion products for the treated samples in Experiment B, and are presented both as ng/g dry sieved fines as well as μM in pore water (FIG. 9). These metals are typically present in Portland Cement at average concentrations of 0.34 ng/g Cd and 76 ng/g Cr. […] Aside from one chromium outlier at 71 days, metal concentrations in the dry fine material after 50 days stayed relatively constant between 400 and 800 ng/g.
Metal concentrations—micromolar levels of both cadmium and chomium—in pore water are also shown; these levels represent the concentrations which drive metal diffusion into bacterial cells on the corrosion front. Pore water concentrations increased to several μM after 70 days, and subsequently receded to less than 0.2 μM by the end of the experiment at 126 days (FIG. 9). This decrease is in pore water concentrations is due to a marked increase in surface moisture as the experiment progressed (up to 23% moisture), which diluted the released metal ions.

For series [4] the following is noted: between pH 1 and pH 6; cited from earlier work.
Series [5] is described as follows: Leaching of metal from metal-carbon formulation in liquid media (total metal concentration). In kind it is physicochemical.
Where [6] appears, read: GAC impregnated with metal ions, phosphate or citrate buffer.

Consider `[O]=[Cr](=[O])([O-])[O-]` [CrO4^−2], for which, in series [1], the “Effect on thiosulfate oxidation” value is “inhibit”. In addition, the “Sorption to GAC as function of pH” value in series [2] (setting [6]) was “sorb strongly at pH above 7 and pH below 5”. For the same compound, in series [2] (pre-loaded GAC, buffered solutions), the “pH below which ions can resorb onto the carbon” value is on record as under 4.
On to `[Cd]` [cadmium], for which the “Metal concentration in pore water” value in series [3] is “several”. In addition, the “Factor of increase of adsorption to activated carbon” value in series [4] was 10. The “pH below which desorption from GAC increases” value in series [2] (setting [6]) is recorded as “below 6”. The “Total metal concentration based on leaching experiments in media” value in series [5] (pH 3) and in series [5] (pH 5) was 0.89 mM in each case.
As for `[Cr]` [chromium], in series [3], the “Metal concentration in pore water” value is “several”. Besides, the figures for the “Total metal concentration based on leaching experiments in media” value in series [5] (pH 3) and in series [5] (pH 5) were 0.00456 mM and 0.000822 mM, respectively.

These data come from patent US9924723B2 (THE REGENTS OF THE UNIVERSITY OF COLORADO, A BODY CORPORATE, priority 2013, dated 2018).
